Data published in patent US20250090507A1, “Methods of Treating Cancer With a B-RAF Inhibitor” (MapKure, LLC, priority 2022, published 2025).
Entries after “also recorded” stand apart in the source; their conditions may differ. Like-named read-outs stand apart in the source and are kept apart here.

Key:
[1] = test system: tumor cell lines harboring non-V600 B-RAF mutations; assay: Preclinical inhibition of tumor cell lines; format: cell-based; settings: preclinical studies
[2] = Phase 1 study (NCT04249843): plasma pharmacokinetics of Compound A; format: in vivo, human; settings: for Racc: accumulation ratio based on AUC8h; for Cmax / AUC(0-t) / Tmax: human, plasma, oral
Description: For a single-dose profile: AUC from zero to the last measurable concentration (AUClast), AUC from zero to infinity (AUC0-∞), maximum observed plasma concentration (Cmax), time to maximum observed plasma concentration (tmax), t1/2, apparent clearance, and apparent volume of distribution (Vz/F). In addition, AUClast,ss, AUCtau, Cmax,ss, and tmax, ss were calculated at steady state.
Pharmacokinetic assay: plasma samples were assayed for Compound A (or possible major metabolites) concentration with use of a validated chromatography method.
Pharmacokinetic data were analyzed using the PK Population. Compound A PK variables (i.e., AUClast, AUC0-∞, Cmax, Tmax, t1/2, apparent clearance and Vz/F) were calculated after single dosing in Phase 1a. In addition, AUClast, ss, AUCtau, Cmax,ss, and tmax,ss were calculated in Phase 1b. The PK parameters were calculated as appropriate using noncompartmental methods and summary statistics were provided. Compound A (or possible major metabolites) plasma concentration data and PK parameters were tabulated and summarized for Day 1 of Cycle 1, Day 1 of Cycle 2 and at steady state (Phase 1b). Descriptive statistics included means, medians, minimums, maximums, standard deviation, coefficient of variation (CV), geometric mean, and geometric CV as appropriate. Mean plasma concentrations were also plotted against time for each dose level. Additional PK analyses may be conducted as appropriate.
Tumor response: • 1 patient evaluable, 201-011: SD week 8. • Preliminary PK parameters and data are listed in Table 6. • Parameters listed as Mean (% CV) • Tmax reported as median (min, max) • Accumulation ratio Racc based on AUC8h • Patient 101-007 was excluded from C2D1 of cohort 2 (10 mg) due to dose reduction. • Patient 101-011 was excluded from summary statistics of CID1 of cohort 6 (60 mg) due to […] samples. • Patient 201-011 C2D1 parameters excluded from summary statistics of C2D1 of cohort 6 due to extended dose interruption.

[3] = pH value of the solid form; format: physicochemical; settings: Form I
[4] = test system: B-RAF/MEK inhibitor-resistant tumors; assay: Preclinical activity towards resistant tumors; settings: preclinical studies
pKa = format: physicochemical
Hygroscopicity = format: physicochemical; settings: solid form, Form I
Permeability = format: in vitro ADME
[5] = test system: RAF family of serine/threonine kinases; assay: Preclinical RAF kinase inhibition; format: biochemical
[6] = 40 mg, 40 mg QD, C2D1, patient 202-012

## O=C1CCc2c(Oc3ccc4c(c3)[C@H]3[C@H](NC(=O)Nc5cc(F)c(F)cc5F)[C@H]3O4)ccnc2N1 [Compound A, 1-((1S,1aS,6bS)-5-((7-oxo-5,6,7,8-tetrahydro-1,8-naphthyridin-4-yl)oxy)-1a,6b-dihydro-1H-cyclopropa[b]benzofuran-1-yl)-3-(2,4,5-trifluorophenyl)urea]
[1]
  Inhibition of tumor cell lines: inhibited
[2]; 5 mg QD, Mean (%CV)
  Racc: 17 (117%)
[2]; 10 mg QD, Mean (%CV)
  Racc: 6 (49%)
[2]; 15 mg QD, Mean (%CV)
  Racc: 7 (60%)
[2]; 25 mg QD, Mean (%CV)
  Racc: 4 (23%)
[2]; 40 mg QD, Mean (%CV)
  Racc: 4 (23.5%)
[2]; 40 mg QD, patient 101-010
  Racc: 4.05
[2]; 40 mg QD, patient 102-012
  Racc: 4.06
[2]; 40 mg QD, patient 201-010
  Racc: 5.43
[2]; 40 mg QD, patient 202-012
  Racc: 3.06
[2]; 60 mg QD, patient 101-011
  Racc: 6.7
[2]; 60 mg QD, patient 201-011
  Racc: 5.7
[2]; 5-60 mg QD, preliminary PK
  Dose proportionality of exposure: generally increased dose-proportionally; also recorded: generally dose-proportional
[2]; cohorts up to 40 mg QD
  Exposure across cohorts versus dose: generally proportional to the increase in the dose
[2]; 5 mg, 5 mg QD, C2D1, Mean (%CV)
  Cmax: 451 ng/mL
[2]; 5 mg, 5 mg QD, C2D1, Mean (%CV), read-out: AUC8 h
  AUC(0-t): 2660 ng·h/mL
[2]; 5 mg, C1D1, Mean (%CV)
  Cmax: 105 ng/mL
[2]; 5 mg, C1D1, Mean (%CV), read-out: AUC8 h
  AUC(0-t): 414 ng·h/mL
[2]; 5 mg, C1D1, Mean (%CV), read-out: AUC24 h
  AUC(0-t): 1380 ng·h/mL
[2]; 10 mg, 10 mg QD, C2D1, Mean (%CV), patient 101-007 excluded
  Cmax: 973 ng/mL
[2]; 10 mg, 10 mg QD, C2D1, Mean (%CV), patient 101-007 excluded, read-out: AUC8 h
  AUC(0-t): 5720 ng·h/mL
[2]; 10 mg, C1D1, Mean (%CV)
  Cmax: 197 ng/mL
[2]; 10 mg, C1D1, Mean (%CV), read-out: AUC8 h
  AUC(0-t): 1060 ng·h/mL
[2]; 10 mg, C1D1, Mean (%CV), read-out: AUC24 h
  AUC(0-t): 3140 ng·h/mL
[2]; 15 mg, 15 mg QD, C2D1, Mean (%CV)
  Cmax: 1660 ng/mL
[2]; 15 mg, 15 mg QD, C2D1, Mean (%CV), read-out: AUC8 h
  AUC(0-t): 9930 ng·h/mL
[2]; 15 mg, C1D1, Mean (%CV)
  Cmax: 274 ng/mL
[2]; 15 mg, C1D1, Mean (%CV), read-out: AUC8 h
  AUC(0-t): 1530 ng·h/mL
[2]; 15 mg, C1D1, Mean (%CV), read-out: AUC24 h
  AUC(0-t): 4780 ng·h/mL
[2]; 25 mg, 25 mg QD, C2D1, Mean (%CV)
  Cmax: 2110 ng/mL
[2]; 25 mg, 25 mg QD, C2D1, Mean (%CV), read-out: AUC8 h
  AUC(0-t): 12300 ng·h/mL
[2]; 25 mg, C1D1, Mean (%CV)
  Cmax: 593 ng/mL
[2]; 25 mg, C1D1, Mean (%CV), read-out: AUC8 h
  AUC(0-t): 3090 ng·h/mL
[2]; 25 mg, C1D1, Mean (%CV), read-out: AUC24 h
  AUC(0-t): 9170 ng·h/mL
[2]; 40 mg, 40 mg QD, C2D1, Mean (%CV)
  Cmax: 2970 ng/mL
[2]; 40 mg, 40 mg QD, C2D1, Mean (%CV), read-out: AUC8 h
  AUC(0-t): 15700 ng·h/mL
[2]; 40 mg, 40 mg QD, C2D1, patient 101-010
  Cmax: 3600 ng/mL
[2]; 40 mg, 40 mg QD, C2D1, patient 101-010, read-out: AUC8 h
  AUC(0-t): 15600 ng·h/mL
[2]; 40 mg, 40 mg QD, C2D1, patient 102-012
  Cmax: 3550 ng/mL
[2]; 40 mg, 40 mg QD, C2D1, patient 102-012, read-out: AUC8 h
  AUC(0-t): 18300 ng·h/mL
[2]; 40 mg, 40 mg QD, C2D1, patient 201-010
  Cmax: 2410 ng/mL
[2]; 40 mg, 40 mg QD, C2D1, patient 201-010, read-out: AUC8 h
  AUC(0-t): 13400 ng·h/mL
[2]; [6]
  Cmax: 2300 ng/mL
  Tmax: 3 h
[2]; 40 mg, 40 mg QD, C2D1, patient 202-012, read-out: AUC8 h
  AUC(0-t): 15400 ng·h/mL
[2]; 40 mg, C1D1, Mean (%CV)
  Cmax: 698 ng/mL
[2]; 40 mg, C1D1, Mean (%CV), read-out: AUC8 h
  AUC(0-t): 3960 ng·h/mL
[2]; 40 mg, C1D1, Mean (%CV), read-out: AUC24 h
  AUC(0-t): 12100 ng·h/mL
[2]; 40 mg, C1D1, patient 101-010
  Cmax: 692 ng/mL
[2]; 40 mg, C1D1, patient 101-010, read-out: AUC8 h
  AUC(0-t): 3850 ng·h/mL
[2]; 40 mg, C1D1, patient 101-010, read-out: AUC24 h
  AUC(0-t): 12000 ng·h/mL
[2]; 40 mg, C1D1, patient 102-012
  Cmax: 789 ng/mL
[2]; 40 mg, C1D1, patient 102-012, read-out: AUC8 h
  AUC(0-t): 4510 ng·h/mL
[2]; 40 mg, C1D1, patient 102-012, read-out: AUC24 h
  AUC(0-t): 12300 ng·h/mL
[2]; 40 mg, C1D1, patient 201-010
  Cmax: 415 ng/mL
[2]; 40 mg, C1D1, patient 201-010, read-out: AUC8 h
  AUC(0-t): 2470 ng·h/mL
[2]; 40 mg, C1D1, patient 201-010, read-out: AUC24 h
  AUC(0-t): 8460 ng·h/mL
[2]; 40 mg, C1D1, patient 202-012
  Cmax: 896 ng/mL
[2]; 40 mg, C1D1, patient 202-012, read-out: AUC8 h
  AUC(0-t): 5040 ng·h/mL
[2]; 60 mg, 60 mg QD, C2D1, Mean row, patient 201-011 excluded
  Cmax: 5330 ng/mL
[2]; 60 mg, 60 mg QD, C2D1, Mean row, patient 201-011 excluded, read-out: AUC8 h
  AUC(0-t): 37500 ng·h/mL
[2]; 60 mg, 60 mg QD, C2D1, patient 201-011 (excluded from C2D1 summary, extended dose interruption)
  Cmax: 5230 ng/mL
[2]; 60 mg, 60 mg QD, C2D1, patient 201-011 (excluded from C2D1 summary, extended dose interruption), read-out: AUC8 h
  AUC(0-t): 31300 ng·h/mL
[2]; 60 mg, C1D1, Mean (%CV), patient 101-011 excluded
  Cmax: 881 ng/mL
[2]; 60 mg, C1D1, Mean (%CV), patient 101-011 excluded, read-out: AUC8 h
  AUC(0-t): 4930 ng·h/mL
[2]; 60 mg, C1D1, Mean (%CV), patient 101-011 excluded, read-out: AUC24 h
  AUC(0-t): 15400 ng·h/mL
[2]; 60 mg, C1D1, patient 101-011 (excluded from C1D1 summary statistics, AQL samples)
  Cmax: 878 ng/mL
[2]; 60 mg, C1D1, patient 101-011 (excluded from C1D1 summary statistics, AQL samples), read-out: AUC8 h
  AUC(0-t): 5630 ng·h/mL
[2]; 60 mg, C1D1, patient 101-011 (excluded from C1D1 summary statistics, AQL samples), read-out: AUC24 h
  AUC(0-t): 18900 ng·h/mL
[2]; 60 mg, C1D1, patient 201-011
  Cmax: 957 ng/mL
[2]; 60 mg, C1D1, patient 201-011, read-out: AUC8 h
  AUC(0-t): 5510 ng·h/mL
[2]; 60 mg, C1D1, patient 201-011, read-out: AUC24 h
  AUC(0-t): 17600 ng·h/mL
[2]; 60 mg, C1D1, patient 202-014
  Cmax: 804 ng/mL
[2]; 60 mg, C1D1, patient 202-014, read-out: AUC8 h
  AUC(0-t): 4340 ng·h/mL
[2]; 60 mg, C1D1, patient 202-014, read-out: AUC24 h
  AUC(0-t): 13100 ng·h/mL
[2]; 5 mg QD, C2D1, median (min, max)
  Tmax: 1 h
[2]; 40 mg QD, C2D1, median (min, max)
  Tmax: 1.5 h
[2]; 60 mg QD, C2D1, patient 201-011 (excluded from C2D1 summary, extended dose interruption)
  Tmax: 2 h
[2]; 5-60 mg QD, preliminary PK, overall
  Tmax: ~2 h
[2]; preliminary PK
  average accumulation in exposure at steady-state: 7.4 fold
  terminal half-life: long
[3]
  pH value: 5.76
[4]
  Activity towards resistant tumors: active
pKa
  pKa: 5.28
Hygroscopicity
  Hygroscopicity: Hygroscopic
Permeability; class in words
  Permeability: High
Permeability; not told
  Papp: > 10 ×10⁻⁶ cm/s
[5]; monomer versus dimer
  Potency against RAF monomer & dimer: equal potency
[5]; preclinical
  Inhibitory activity against RAF kinases: potent inhibitory activity; also recorded: highly potent
